Measurements published in US11149086B2, “KV1.3 binding immunoglobulins” (Ablynx N.V., priority 2014, dated 2021).
pIC50: −log10 of the molar value. Bridge positions count the residues as written; N and C are the ends. Peptide text beside a SMILES is read from it.

Assays:
[1] = biological target: T1, human Kv1.3 (Homo sapiens, UniProt P22001); experiment: FACS competition with FAM-labeled ShK on HEK293H human Kv1.3 cells; type: binding; settings: 70 nM ShK-FAM
T1 construct: cell lines stably expressing the full length human Kv1.3 channel
Protocol: To evaluate the competition between the toxin ShK and the Nanobodies for binding to Kv1.3, a FACS competition experiment was performed using HEK293H cells overexpressing human Kv1.3 and the parental HEK293H cells as background cell line. As detection reagent, FAM-labeled ShK was used (6-FAM-AEEAc-Stichodactyla helianthus Neurotoxin (ShK) (Bachem, H-6088, 1046522, PRT00000366/01/01)). To setup the assay, first a titration series of the labeled Shk-FAM was performed on the HEK293H Kv1.3 cells in order to determine the EC50 value for binding.
In brief, a dilution series of ShK or Nanobody were added together with the labeled toxin to 200 000 cells in a 96-well plate. After 90 minutes incubation at 4° C., cells were washed three times before read out was performed on a FACS Canto (Becton Dickinson). First a gate was set on the intact cells as determined from the scatter profile. Next, dead cells were gated out by their fluorescence profile from the TOPRO stain (5 nM, Molecular probes, T3605). […] The percentage of inhibition for Nanobodies blocking the interaction of ShK to human Kv1.3 is depicted in Table B-11.

[2] = test system: human PBMCs; experiment: IFNγ production by human PBMCs after anti-CD3 with or without anti-CD28 stimulation; type: cell-based
Protocol: The anti-Kv1.3 inhibitory Nanobodies were evaluated for their effect on cytokine secretion by plate-bound anti-CD3/CD28 stimulated PBMCs. ShK was included as reference compound (FIG. 30). This co-stimulation of T-cells with anti-CD3 and anti-CD28 reflects strong immune stimulation as encountered during an acute infection. Single stimulation with anti-CD3 imitates rather the moderate immune stimulation resembling the situation during e.g. an autoimmune disease.
Briefly, PBMCs were first collected from Buffy Coat blood (from healthy volunteers, Bloodbank Gent) using RosetteSep (StemCell Technologies, #15061) followed by an enrichment on Ficoll-Paque™ PLUS (GE Healthcare #17-1440-03). The purity of the population was afterwards checked with anti-CD3 (eBioscience #12-0037-73); anti-CD8 (BD Bioscience #345775); anti-CD4 (BD Bioscience #345771); anti-CD45RO (BD Bioscience #555493); anti-CD45RA (BD Bioscience #550855) and anti-CD19 (BD Bioscience #555413) fluorescently labeled antibodies in a flow cytometric assay. […] After 72 h, IFN-gamma production was measured with anti-human IFNγ antibody capture in ELISA (BD Bioscence #551221) combined with biotinylated anti-human IFNγ (BD Bioscience, #554550) and streptavidin-HRP (Dakocytomation #P0397) as detection.

[3] = test system: DNFB-induced delayed type hypersensitivity in Wistar rats; experiment: DNFB-induced delayed-type hypersensitivity (DTH) rat model, ear swelling; type: in vivo
From the text: A delayed-type hypersensitivity (DTH) reaction is an expression of T cell-mediated immunity in response to cutaneous sensitization and challenge with reactive haptens like 2, 4-dinitrofluorobenzene (DNFB), largely mediated by skin-homing effector memory T cells (Azam P et al., J Invest Dermatol 127(6):1419-29, 2007; Matheu M P et al., Immunity 29(4):602-14, 2008). The voltage-gated potassium channel Kv1.3 is expressed in T cells, and is important in maintaining T cell activation (predominantly effector memory T cells).
For the purpose of in vivo proof-of-concept, the efficacy of anti-Kv1.3 Nanobodies on DNFB-induced delayed type hypersensitivity in Wistar rats was evaluated. The DTH response in the rats was elicited as follows (see FIG. 37): on day 0 (start of the in-life) and day 1, 100 μl of 1% (wt/vol) DNFB prepared in 4:1 acetone/olive oil was applied to the shaved dorsum for sensitization. On day 5, animals were challenged on both sides of the right ear pinnae of the animals with 50 μl of 0.5% (wt/vol) DNFB prepared in 4:1 acetone: olive oil. […] As positive control, animals were treated with dexamethasone (topical, 0.75 mg at 1 hour and 6 hours post-challenge). On day 5 before DNFB challenge, the baseline right ear pinna thickness was measured, and the net ear swelling response was determined 24 hours after challenge with a spring-loaded micrometer.
The DTH response in the rats was elicited as follows (see FIG. 37): on day 0 (start of the in-life) and day 1, 100 μl of 1% (wt/vol) DNFB prepared in 4:1 acetone/olive oil was applied to the shaved dorsum for sensitization. On day 5, animals were challenged on both sides of the right ear pinnae of the animals with 50 μL of 0.5% (wt/vol) DNFB prepared in 4:1 acetone: olive oil. Animals (n=10 rats/group) received two subcutaneous (s.c.) injections of either vehicle, the benchmark compound ShK or the anti-Kv1.3 Nanobody at 12 hours and/or 1 hour preceding the challenge. As positive control, animals were treated with dexamethasone (topical, 0.75 mg at 1 hour and 6 hours post-challenge). On day 5 before DNFB challenge, the baseline right ear pinna thickness was measured, and the net ear swelling response was determined 24 hours after challenge with a spring-loaded micrometer.

[4] = test system: CCR7−CD45RA− T cells; type: cell-based, human; settings: monovalent Nanobodies
From the text: The purified anti-Kv1.3 Nanobodies were characterized in a T Cell-activation assay. Human T Cells were first collected from Buffy Coat blood (from healthy volunteers, Bloodbank Gent) using RosetteSep (StemCell Technologies, #15061) followed by an enrichment on Ficoll-Paque™ PLUS (GE Healthcare #17-1440-03). CCR7−CD45RA− T cells were isolated through negative selection using biotinylated antibodies against CD45RA (BD Bioscience #624008) and CCR7 (BD Bioscence #624009) in addition to the Dynabeads Biotin Binder (Invitrogen #110.47). […]
Isolated CCR7^−CD45RA^− T Cells were then stimulated on anti-CD3 (eBioscience 16-0037-85; 540 ng/ml) coated 96-well plates at a concentration of 200 000 cells/well in absence or presence of dilution series of anti-Kv1.3 antibodies and ShK positive control (Smartox, #08SHK001). After 72 h, IFN-gamma production was measured with anti-human IFNγ antibody capture in ELISA (BD Bioscence #551221) combined with biotinylated anti-human IFNγ (BD Bioscience, #554550) and streptavidin-HRP (Dakocytomation #P0397) as detection (FIG. 11A-11B).
In addition, also CD25 expression was measured in flow cytometry, using an anti-CD25 antibody (BD Pharmingen, cat 557138) (FIG. 11C-11D). […]

T1 sequence (P22001 whole entry): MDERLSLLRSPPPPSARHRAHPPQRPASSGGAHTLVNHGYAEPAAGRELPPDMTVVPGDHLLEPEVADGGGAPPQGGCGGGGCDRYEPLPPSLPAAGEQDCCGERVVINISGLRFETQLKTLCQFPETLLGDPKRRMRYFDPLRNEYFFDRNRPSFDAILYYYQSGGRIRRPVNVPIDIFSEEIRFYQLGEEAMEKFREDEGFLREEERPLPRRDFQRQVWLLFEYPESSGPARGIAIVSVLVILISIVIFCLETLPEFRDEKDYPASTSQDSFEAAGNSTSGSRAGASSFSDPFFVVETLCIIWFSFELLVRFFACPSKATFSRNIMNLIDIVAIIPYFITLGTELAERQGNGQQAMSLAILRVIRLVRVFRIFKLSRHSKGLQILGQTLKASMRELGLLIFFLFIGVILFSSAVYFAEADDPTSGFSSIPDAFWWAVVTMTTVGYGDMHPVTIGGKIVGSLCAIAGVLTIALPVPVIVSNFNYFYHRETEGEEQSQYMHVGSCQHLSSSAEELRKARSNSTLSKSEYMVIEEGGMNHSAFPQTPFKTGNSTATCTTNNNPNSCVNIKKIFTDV

## CC[C@H](C)[C@@H]1NC(=O)[C@@H](NC(=O)[C@H](CO)NC(=O)[C@@H](N)CCCNC(=N)N)CSSC[C@@H](C(=O)O)NC(=O)[C@H]([C@@H](C)O)NC(=O)CNC(=O)[C@@H]2CSSC[C@@H]3NC(=O)[C@H](CCC(N)=O)NC(=O)[C@H](Cc4ccccc4)NC(=O)[C@H](C)NC(=O)[C@H]([C@@H](C)O)NC(=O)[C@H](CSSC[C@H](NC(=O)[C@H](Cc4ccccc4)NC(=O)[C@H](CO)NC(=O)[C@H](CC(C)C)NC(=O)[C@H](CCCNC(=N)N)NC(=O)[C@H](Cc4ccc(O)cc4)NC(=O)[C@H](CCCCN)NC(=O)[C@H](CCSC)NC(=O)[C@H](CO)NC(=O)[C@H](Cc4c[nH]cn4)NC(=O)[C@H](CCCCN)NC3=O)C(=O)N[C@@H](CCCNC(=N)N)C(=O)N[C@@H](CCCCN)C(=O)N[C@@H]([C@@H](C)O)C(=O)N2)NC(=O)[C@H](CCCNC(=N)N)NC(=O)[C@H](CO)NC(=O)[C@H](CCCCN)NC(=O)[C@@H]2CCCN2C(=O)[C@H]([C@@H](C)CC)NC(=O)[C@H]([C@@H](C)O)NC(=O)[C@H](CC(=O)O)NC1=O [ShK]
[1]
  blocking of FAM labeled ShK binding to Kv1.3, in words: completely blocked
[2]; anti-CD3 and anti-CD28, 72 h
  IFNγ production, PBMCs co-stimulated with anti-CD3 and anti-CD28: do not inhibit
[2]; single anti-CD3 stimulation, 72 h
  IFNγ production, PBMCs stimulated with anti-CD3 only: Inhibition
[3]; Example 12, two s.c. injections of 10 μg/kg, 12 h and 1 h pre-challenge
  mean increase in ear thickness: 0.213±0.019 mm
[3]; Example 13, two s.c. injections of 100 μg/kg
  mean increase in ear thickness: 0.136±0.024 mm

## CC[C@H](C)[C@H](NC(=O)[C@@H](N)[C@@H](C)O)C(=O)N[C@H](C(=O)N[C@@H](CC(N)=O)C(=O)N[C@H](C(=O)N[C@@H](CCCCN)C(=O)N[C@H]1CSSC[C@@H]2NC(=O)[C@H](CCCCN)NC(=O)[C@H](C)NC(=O)CNC(=O)[C@H](C)NC(=O)[C@H](CO)NC(=O)[C@H](CCC(N)=O)NC(=O)CNC(=O)[C@H](Cc3ccccc3)NC(=O)[C@H](CCC(N)=O)NC(=O)[C@H](C)NC(=O)[C@H](CCCCN)NC(=O)[C@@H]3CSSC[C@@H](C(=O)N[C@@H](Cc4ccc(O)cc4)C(=O)N4CCC[C@H]4C(=O)N[C@@H](Cc4c[nH]cn4)C(=O)O)NC(=O)[C@H](CCCCN)NC(=O)[C@H](CSSC[C@H](NC(=O)[C@H](CCC(N)=O)NC(=O)[C@H](CCCCN)NC(=O)[C@@H]4CCCN4C(=O)[C@H](CO)NC(=O)[C@H]([C@@H](C)O)NC1=O)C(=O)N[C@@H](CC(C)C)C(=O)N1CCC[C@H]1C(=O)N1CCC[C@H]1C(=O)N3)NC(=O)[C@H](CCCCN)NC(=O)CNC(=O)[C@H](CC(N)=O)NC(=O)[C@H](CCSC)NC2=O)C(C)C)[C@@H](C)CC [MgTX, margatoxin, reference compound] (H-TIINVKCTSPKQCLPPCKAQFGQSAGAKCMNGKCKCYPH-OH; disulfide 7-29, 13-34, 17-36; N-terminus and C-terminus assumed)
[4]; plate bound anti-CD3
  IC50 (in M) CD25 read out: no fit
[4]; plate bound anti-CD3, 72 h, read-out: IC50 (in M) IFNγ read out
  pIC50: 10.03

## C[C@@H]1C[C@H]2[C@@H]3CCC4=CC(=O)C=C[C@]4(C)[C@@]3(F)[C@@H](O)C[C@]2(C)[C@@]1(O)C(=O)CO [dexamethasone]
[3]; Example 12, topical 0.75 mg at 1 h and 6 h post-challenge, 24 h after challenge
  mean increase in ear thickness: 0.027±0.017 mm
[3]; Example 13, topical 0.75 mg at 1 h and 6 h post-challenge
  mean increase in ear thickness: 0.018±0.016 mm
